Key:
[1] = Thermogravimetric analysis (TGA); type: physicochemical; details: heating to 400° C. under N2 at 5.0° C./min
Method: Thermogravimetric Analysis (TGA) Thermographs were recorded in a Thermogravimetric Analyzer (TGA) from TA Instruments Inc. (Q500) calibrated with calcium oxalate monohydrate (CaC2O4·H2O) standard to determine if MBQ-167 degrades before melting. Between 1.000-2.000 mg of the crystalline sample were equilibrated at 25° C. for 5 min before heating to 400° C. under N2 atmosphere (60 mL/min) at a rate of 5.0° C./min and a temperature accuracy of 0.1° C. Data was analyzed with the TA Universal Analysis 2000 software (version 4.5A).
Decomposition of the Form I polymorph (a) begins at about 184.7° C., while onset for decomposition of the Form II polymorph (b) begins at about 193.0° C.

[2] = Differential scanning calorimetry (DSC); type: physicochemical; details: heating 5.0° C./min under N2
Method: Differential Scanning calorimetry (DSC) DSC was performed to determine the melting temperature (Tm) and enthalpy of fusion (ΔfusH) of MBQ-167. A differential scanning calorimeter (DSC) from TA Instruments Inc. (Q2000) equipped with a RCS40 single-stage refrigeration system was employed to carry out these measurements. The calibration of the DSC was conducted with an indium standard (Tm=156.6° C. and ΔfusH=28.54 J/g). Between 1.000-3.000 mg of the crystalline sample was weighed using a XP26 microbalance from Mettler Toledo (±0.002 mg) and placed on Tzero aluminum pans that were hermetically sealed. Samples were equilibrated at 25° C. for 5 min before heating to 250° C. at a rate of 5.0° C./min and then was cooled to 25° C. at a heating rate of 10° C./min under a N2 atmosphere (50 mL/min) and a temperature accuracy of 0.1° C.
A first endothermic peak, with an onset of 128.22° C. and centered at 129.82° C., corresponding to 0.4504 W/g, is followed by a second endothermic peak, with an onset of 152.81° C. and centered at 153.64° C., corresponding to 0.5809 W/g.
Overlay of the two DSC thermographs, shown in FIG. 3, makes apparent the source of the behavior of the Form II polymorph. The Form I polymorph undergoes a single endothermic phase transition to the melt. […]

Row | onset of decomposition (TGA) [1] | centre of first endothermic peak (phase transition to the more stable Form I polymorph) [2] | onset of first endothermic peak (phase transition to the more stable Form I polymorph) [2] | SMILES | decomposition relative to melting (TGA) [1]
1 | – | – | – | CCn1c2ccccc2c2cc(-n3nncc3-c3ccccc3)ccc21 [MBQ-167, 9-ethyl-3-(5-phenyl-1H-1,2,3-triazol-1-yl)-9H-carbazole] | starts to decompose after the melting temperature
2 | about 184.7 °C | – | – | CCn1c2ccccc2c2cc(-n3nncc3-c3ccccc3)ccc21 [Form I polymorph, 9-Ethyl-3-(5-phenyl-1H-1,2,3-triazol-1-yl)-9H-carbazole] | –
3 | about 193.0 °C | 129.82 °C | 128.22 °C | CCn1c2ccccc2c2cc(-n3nncc3-c3ccccc3)ccc21 [Form II polymorph, 9-Ethyl-3-(5-phenyl-1H-1,2,3-triazol-1-yl)-9H-carbazole] | –

From US12209078B2, “Crystalline forms of carbazole inhibitors of RhoGTPase for the treatment of disease” (MBQ Pharma, priority 2021, dated 2025)
